Test results as given in patent US20230146870A1, “METHOD TO QUANTIFY AFFINITY AND SELECTIVITY OF SMALL MOLECULES FOR PROTEINS IN LIVING CELLS” (Ohio State Innovation Foundation, priority 2021, published 2023).
“And” between values parts separate entries of the source, which are not always exact repeats. Identical values can stand only once. Like-named read-outs stand apart in the source and are kept apart here.

How the values were obtained:
[1] = target: T1, native (untagged) murine PKCβI (Mus musculus, UniProt P68404); experiment: FPCBA competition with probe 1, native PKCβI in HEK293 cells; type: binding; details: read-out: Cellular Ki for native PKCβI (95% confidence interval)
T1 construct: For coexpression of full-length unmodified PKC proteins with mVenus as an independent marker; expressed in transfected cells; host or cells: HEK293 (transient, pIRES-mVenus)

[2] = target: T2, native (untagged) murine PKCδ (Mus musculus, UniProt P28867); experiment: FPCBA competition with probe 1, native PKCδ in HEK293 cells; type: binding; details: read-out: Cellular Ki for native PKCδ (95% confidence interval)
T2 construct: For coexpression of full-length unmodified PKC proteins with mVenus as an independent marker; expressed in transfected cells; host or cells: HEK293 (transient, pIRES-mVenus)

Jurkat lymphocytes = experiment: Cytotoxicity assay, Jurkat lymphocytes, 48 h, flow cytometry (Example 3); type: cell-based
Experimental: […]. Where noted, 2×BIM1 (4 μM) was included.

HEK293 cells = experiment: Cytotoxicity assay, HEK293 cells, 48 h, flow cytometry (Example 3); details: concentrations of ≤10 μM
Experimental: As a preliminary assessment of their ability to activate PKCs, we evaluated the cytotoxicity of 1-3 towards HEK293 and Jurkat cells.
Where noted, 2×BIM1 (4 μM) was included. These diluted solutions of compounds (100 μL) were added to each well of a 96-well plate containing cells in medium (100 μL) in triplicate. For Jurkat lymphocytes, cells were seeded in fresh complete RPMI medium (10% FBS, 1% Pen/Strep) at 4.5×10^5 cells/mL (2× stock, 100 μL per well, [DMSO]=0.2%). […] Cell culture media (100 μL) was carefully removed from each well followed by the addition of the diluted compound solutions (2×, 100 μL) in triplicate.

PKC proteins = details: cited from earlier work
PKCδ = details: read-out: Biochemical Ki, PKCδ; cited from earlier work
[3] = target: T3, native (untagged) murine PKCζ (Mus musculus, UniProt Q02956); experiment: FPCBA competition with probe 1, native PKCζ in HEK293 cells; type: binding; parameters: expressed in transfected cells; host or cells: HEK293 (ATCC CRL-1573), transient transfection with pIRES-mVenus carrying the PKC gene
T3 sequence (Q02956 1-592): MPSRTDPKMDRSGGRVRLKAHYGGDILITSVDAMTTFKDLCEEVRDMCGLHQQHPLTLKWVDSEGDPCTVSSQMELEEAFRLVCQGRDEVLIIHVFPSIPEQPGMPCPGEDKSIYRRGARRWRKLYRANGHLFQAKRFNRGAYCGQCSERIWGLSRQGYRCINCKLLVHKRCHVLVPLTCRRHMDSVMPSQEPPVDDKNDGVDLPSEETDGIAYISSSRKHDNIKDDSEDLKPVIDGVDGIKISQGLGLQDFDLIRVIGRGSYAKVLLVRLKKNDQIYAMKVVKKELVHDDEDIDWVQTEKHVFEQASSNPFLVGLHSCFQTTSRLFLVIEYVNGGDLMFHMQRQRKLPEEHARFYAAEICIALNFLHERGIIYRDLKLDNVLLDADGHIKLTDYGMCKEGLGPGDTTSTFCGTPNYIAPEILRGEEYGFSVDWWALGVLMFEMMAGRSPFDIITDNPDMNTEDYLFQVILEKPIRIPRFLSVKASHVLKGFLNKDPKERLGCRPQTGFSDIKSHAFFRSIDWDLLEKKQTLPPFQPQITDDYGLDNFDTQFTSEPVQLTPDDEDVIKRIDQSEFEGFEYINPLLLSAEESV

[4] = target: native (untagged) murine PKCη (Mus musculus, UniProt P23298); experiment: FPCBA competition with probe 1, native PKCη in HEK293 cells; type: binding; parameters: expressed in transfected cells; host or cells: HEK293 (ATCC CRL-1573), transient transfection with pIRES-mVenus carrying the PKC gene; details: read-out: Cellular Ki for native PKCη (95% confidence interval)
[5] = target: native (untagged) murine PKCθ (Mus musculus, UniProt Q02111); experiment: FPCBA competition with probe 1, native PKCθ in HEK293 cells; type: binding; parameters: expressed in transfected cells; host or cells: HEK293 (ATCC CRL-1573), transient transfection with pIRES-mVenus carrying the PKC gene; details: read-out: Cellular Ki for native PKCθ (95% confidence interval)
[6] = target: native (untagged) murine PKCγ (Mus musculus, UniProt P63318); experiment: FPCBA competition with probe 1, native PKCγ in HEK293 cells; type: binding; parameters: For coexpression of full-length unmodified PKC proteins with mVenus as an independent marker; expressed in transfected cells; host or cells: HEK293 (transient, pIRES-mVenus); details: read-out: Cellular Ki for native PKCγ (95% confidence interval)
[7] = target: T4, native (untagged) murine PKCε (Mus musculus, UniProt P16054); experiment: FPCBA competition with probe 1, native PKCε in HEK293 cells; type: binding; parameters: For coexpression of full-length unmodified PKC proteins with mVenus as an independent marker; expressed in transfected cells; host or cells: HEK293 (transient, pIRES-mVenus); details: read-out: Cellular Ki for native PKCε (95% confidence interval)
T4 sequence (P16054 1-737): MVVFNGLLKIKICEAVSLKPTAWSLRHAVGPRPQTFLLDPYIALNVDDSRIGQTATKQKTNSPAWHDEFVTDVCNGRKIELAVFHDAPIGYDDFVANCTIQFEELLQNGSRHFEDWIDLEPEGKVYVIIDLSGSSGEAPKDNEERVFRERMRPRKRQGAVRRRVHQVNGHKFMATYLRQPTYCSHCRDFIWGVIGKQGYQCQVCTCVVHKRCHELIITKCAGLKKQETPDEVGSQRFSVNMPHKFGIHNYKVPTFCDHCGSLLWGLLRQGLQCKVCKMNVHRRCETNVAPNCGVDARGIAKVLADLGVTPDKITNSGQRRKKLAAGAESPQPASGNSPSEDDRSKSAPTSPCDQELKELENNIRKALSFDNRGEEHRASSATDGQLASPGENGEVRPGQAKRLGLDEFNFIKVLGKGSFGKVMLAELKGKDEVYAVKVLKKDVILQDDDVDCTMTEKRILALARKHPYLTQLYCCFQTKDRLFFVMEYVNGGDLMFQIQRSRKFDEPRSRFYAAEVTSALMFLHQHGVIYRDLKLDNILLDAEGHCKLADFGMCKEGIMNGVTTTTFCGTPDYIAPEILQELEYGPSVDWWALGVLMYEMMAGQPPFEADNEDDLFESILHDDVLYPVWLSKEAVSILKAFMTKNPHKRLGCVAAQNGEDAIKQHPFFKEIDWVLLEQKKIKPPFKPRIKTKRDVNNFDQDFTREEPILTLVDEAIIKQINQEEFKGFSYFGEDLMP

mouse PKCβI-mVenus = target: T5, mouse PKCβI-mVenus (Mus musculus, UniProt P68404); experiment: Apparent cellular Kd by flow cytometry, HEK293 cells overexpressing PKCβI-mVenus (Example 2); type: binding
T5 construct: eight plasmids encoding full length mouse PKC isozymes fused to; expressed in transfected cells; host or cells: HEK293
Experimental: The apparent Kd values of these fluorescent probes were measured using different PKC isozymes (e.g., PKCβI, FIGS. 20A-20D). HEK293 cells were transfected to overexpress PKCβ-mVenus and treated with probes in the presence of verapamil (100 μM) as an inhibitor of efflux.

[8] = target: full-length rat PKCγ-EGFP (Rattus norvegicus, UniProt P63319); experiment: Cellular binding by flow cytometry, HEK293 cells expressing full-length PKCγ-EGFP; details: verapamil 100 μM
mouse PKCα-mVenus = mouse PKCα-mVenus (Mus musculus, UniProt P20444); experiment: Apparent cellular Kd by flow cytometry, HEK293 cells overexpressing PKCα-mVenus (Example 2)
mouse PKCγ-mVenus = mouse PKCγ-mVenus (Mus musculus, UniProt P63318); experiment: Apparent cellular Kd by flow cytometry, HEK293 cells overexpressing PKCγ-mVenus (Example 2)
mouse PKCδ-mVenus = mouse PKCδ-mVenus (Mus musculus, UniProt P28867); experiment: Apparent cellular Kd by flow cytometry, HEK293 cells overexpressing PKCδ-mVenus (Example 2)
mouse PKCε-mVenus = target: T6, mouse PKCε-mVenus (Mus musculus, UniProt P16054); experiment: Apparent cellular Kd by flow cytometry, HEK293 cells overexpressing PKCε-mVenus (Example 2)
T6 sequence (P16054 1-737): T4 sequence (P16054 1-737)

mouse PKCη-mVenus = mouse PKCη-mVenus (Mus musculus, UniProt P23298); experiment: Apparent cellular Kd by flow cytometry, HEK293 cells overexpressing PKCη-mVenus (Example 2)
mouse PKCθ-mVenus = mouse PKCθ-mVenus (Mus musculus, UniProt Q02111); experiment: Apparent cellular Kd by flow cytometry, HEK293 cells overexpressing PKCθ-mVenus (Example 2)
mouse PKCθ-mVenus, sequence (Q02111 whole entry): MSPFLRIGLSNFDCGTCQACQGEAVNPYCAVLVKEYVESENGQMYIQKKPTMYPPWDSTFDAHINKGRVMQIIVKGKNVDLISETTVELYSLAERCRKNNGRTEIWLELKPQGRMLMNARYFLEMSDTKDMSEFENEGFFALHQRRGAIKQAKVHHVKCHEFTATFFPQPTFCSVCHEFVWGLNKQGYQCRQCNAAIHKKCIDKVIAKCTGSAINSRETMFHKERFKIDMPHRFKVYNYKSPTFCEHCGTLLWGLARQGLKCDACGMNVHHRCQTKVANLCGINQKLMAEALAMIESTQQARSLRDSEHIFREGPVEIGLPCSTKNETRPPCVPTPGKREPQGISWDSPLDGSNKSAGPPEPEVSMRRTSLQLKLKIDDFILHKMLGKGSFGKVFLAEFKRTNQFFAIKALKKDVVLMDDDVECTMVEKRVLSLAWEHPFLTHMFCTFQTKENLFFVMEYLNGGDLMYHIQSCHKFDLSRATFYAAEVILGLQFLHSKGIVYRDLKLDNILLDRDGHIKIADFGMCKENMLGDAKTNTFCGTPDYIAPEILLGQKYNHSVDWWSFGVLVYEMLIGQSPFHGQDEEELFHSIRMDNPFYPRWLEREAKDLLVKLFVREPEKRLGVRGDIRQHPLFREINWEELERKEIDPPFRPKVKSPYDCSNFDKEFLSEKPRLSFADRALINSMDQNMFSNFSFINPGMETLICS

T5 sequence (P68404 whole entry, the tested form may be a part): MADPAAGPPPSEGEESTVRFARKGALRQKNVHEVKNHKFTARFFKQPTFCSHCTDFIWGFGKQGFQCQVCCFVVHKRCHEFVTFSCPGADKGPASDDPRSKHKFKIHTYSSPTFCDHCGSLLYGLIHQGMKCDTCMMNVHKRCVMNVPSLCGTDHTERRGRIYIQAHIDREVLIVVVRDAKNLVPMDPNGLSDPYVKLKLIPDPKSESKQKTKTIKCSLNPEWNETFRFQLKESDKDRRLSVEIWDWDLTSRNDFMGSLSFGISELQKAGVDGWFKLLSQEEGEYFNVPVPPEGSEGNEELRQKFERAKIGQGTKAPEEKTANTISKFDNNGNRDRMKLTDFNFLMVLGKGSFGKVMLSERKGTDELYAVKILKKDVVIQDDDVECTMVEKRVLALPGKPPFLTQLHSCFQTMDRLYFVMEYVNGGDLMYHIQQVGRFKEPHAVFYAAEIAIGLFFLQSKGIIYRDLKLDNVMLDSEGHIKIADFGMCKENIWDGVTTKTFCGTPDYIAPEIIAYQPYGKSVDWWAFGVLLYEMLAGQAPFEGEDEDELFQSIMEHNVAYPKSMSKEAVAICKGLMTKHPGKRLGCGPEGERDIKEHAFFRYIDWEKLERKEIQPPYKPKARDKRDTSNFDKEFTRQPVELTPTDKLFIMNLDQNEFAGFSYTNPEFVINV
T2 sequence (P28867 whole entry): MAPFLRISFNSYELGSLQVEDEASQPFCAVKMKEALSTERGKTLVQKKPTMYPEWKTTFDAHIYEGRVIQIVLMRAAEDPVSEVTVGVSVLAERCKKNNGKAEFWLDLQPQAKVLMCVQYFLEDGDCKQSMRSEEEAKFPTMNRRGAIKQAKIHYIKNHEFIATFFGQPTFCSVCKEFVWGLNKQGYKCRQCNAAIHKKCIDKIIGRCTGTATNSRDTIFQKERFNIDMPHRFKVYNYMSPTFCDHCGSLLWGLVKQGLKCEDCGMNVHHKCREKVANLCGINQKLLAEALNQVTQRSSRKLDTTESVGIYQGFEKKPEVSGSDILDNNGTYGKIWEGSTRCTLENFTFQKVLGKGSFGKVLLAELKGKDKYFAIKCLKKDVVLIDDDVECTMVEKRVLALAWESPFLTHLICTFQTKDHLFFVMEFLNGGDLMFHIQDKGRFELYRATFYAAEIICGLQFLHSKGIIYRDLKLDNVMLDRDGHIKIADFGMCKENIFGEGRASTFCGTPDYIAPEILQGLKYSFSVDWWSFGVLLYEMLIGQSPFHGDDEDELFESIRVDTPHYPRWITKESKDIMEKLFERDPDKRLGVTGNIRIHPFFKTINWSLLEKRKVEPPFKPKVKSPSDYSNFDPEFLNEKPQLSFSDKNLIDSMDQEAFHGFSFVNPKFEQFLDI
T1 sequence (P68404 2-673 isoform P68404-2): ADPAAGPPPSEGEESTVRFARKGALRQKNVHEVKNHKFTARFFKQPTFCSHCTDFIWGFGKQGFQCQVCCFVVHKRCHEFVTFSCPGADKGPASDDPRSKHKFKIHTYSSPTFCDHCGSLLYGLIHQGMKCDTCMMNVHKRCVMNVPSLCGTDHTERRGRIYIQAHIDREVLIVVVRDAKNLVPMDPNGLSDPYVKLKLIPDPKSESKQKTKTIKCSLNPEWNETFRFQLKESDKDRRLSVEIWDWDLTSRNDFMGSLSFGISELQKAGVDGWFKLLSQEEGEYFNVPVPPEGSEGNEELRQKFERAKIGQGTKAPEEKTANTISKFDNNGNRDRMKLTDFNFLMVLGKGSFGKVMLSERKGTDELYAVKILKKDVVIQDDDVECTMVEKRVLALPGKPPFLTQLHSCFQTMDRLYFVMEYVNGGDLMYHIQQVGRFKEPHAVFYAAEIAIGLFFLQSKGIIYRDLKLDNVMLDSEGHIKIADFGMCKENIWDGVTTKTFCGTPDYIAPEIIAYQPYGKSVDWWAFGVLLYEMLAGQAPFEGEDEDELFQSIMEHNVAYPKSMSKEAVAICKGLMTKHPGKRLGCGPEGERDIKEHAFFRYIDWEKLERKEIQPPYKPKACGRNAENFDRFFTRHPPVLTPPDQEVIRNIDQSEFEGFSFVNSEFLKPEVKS
mouse PKCδ-mVenus, sequence (P28867 whole entry): as the sequence (P28867 whole entry) above
native (untagged) murine PKCθ, sequence (Q02111 whole entry): as the sequence (Q02111 whole entry) above
mouse PKCη-mVenus, sequence (P23298 whole entry): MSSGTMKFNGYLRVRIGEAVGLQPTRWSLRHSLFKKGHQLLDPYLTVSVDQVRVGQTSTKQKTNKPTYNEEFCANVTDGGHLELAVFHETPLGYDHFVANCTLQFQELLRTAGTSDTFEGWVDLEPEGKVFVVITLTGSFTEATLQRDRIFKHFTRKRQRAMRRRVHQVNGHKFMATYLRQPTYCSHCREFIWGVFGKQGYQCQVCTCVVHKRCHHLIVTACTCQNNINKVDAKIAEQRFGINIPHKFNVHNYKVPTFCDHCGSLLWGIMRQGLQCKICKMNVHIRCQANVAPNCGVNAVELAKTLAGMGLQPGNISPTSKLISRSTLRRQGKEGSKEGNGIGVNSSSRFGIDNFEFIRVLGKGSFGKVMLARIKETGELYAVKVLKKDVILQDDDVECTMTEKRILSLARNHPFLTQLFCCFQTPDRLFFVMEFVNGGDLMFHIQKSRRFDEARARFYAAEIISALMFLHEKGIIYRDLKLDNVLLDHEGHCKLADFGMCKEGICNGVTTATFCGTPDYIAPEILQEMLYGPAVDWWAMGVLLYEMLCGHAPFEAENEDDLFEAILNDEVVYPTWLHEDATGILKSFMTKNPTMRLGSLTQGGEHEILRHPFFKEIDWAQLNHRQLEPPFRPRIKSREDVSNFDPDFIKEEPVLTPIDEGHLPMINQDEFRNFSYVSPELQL
native (untagged) murine PKCη, sequence (P23298 whole entry): as above

CCCC(=O)O[C@@H]1[C@@H](C)[C@@]2(O)[C@@H](C=C(CO)C[C@]3(O)C(=O)C(C)=C[C@@H]23)[C@@H]2C(C)(C)[C@]12OC(=O)CCC [PDBu, phorbol 12,13-dibutyrate]
Ki [1]: 14 nM | Ki [2]: 32 nM and 50 nM | effect of BIM1 on cytotoxicity towards Jurkat lymphocytes (Jurkat lymphocytes; BIM1 2 μM): completely blocked | IC50 (Jurkat lymphocytes; read-out: cytotoxicity towards Jurkat lymphocytes, IC50): 2 nM | toxicity towards HEK293 cells (HEK293 cells): non-toxic | Kd (PKC proteins; in the presence of phospholipids): ~1 nM | Kd (PKC proteins; without phospholipids): ~160 nM | Ki (PKCδ): […] | Cellular Ki for native PKCζ [3]: No binding | Ki [4]: 14 nM | Ki [5]: 50 nM | Ki [6]: 44 nM | Ki [7]: 55 nM

CC1=C[C@H]2[C@@]3(O)[C@H](C)[C@@H](O)[C@]4(OC(=O)N(C)CCCCCCCCCCCCN(C)C(=O)c5cc6ccc(O)cc6oc5=O)[C@H]([C@@H]3C=C(CO)C[C@]2(O)C1=O)C4(C)C [probe 34, (1aR,1bS,4aR,7aS,7bS,8R,9R,9aS)-4a,7b,9-trihydroxy-3-(hydroxymethyl)-1,1,6,8-tetramethyl-5-oxo-1,1a,1b,4,4a,5,7a,7b,8,9-decahydro-9aH-cyclopropa[3,4]benzo[1,2-e]azulen-9a-yl (12-(7-hydroxy-N-methyl-2-oxo-2H-chromene-3-carboxamido)dodecyl)(methyl)carbamate]
specific binding to PKCβI-mVenus (mouse PKCβI-mVenus; 90 min): not measurable | total binding fluorescence vs non-specific binding [8]: identical or lower than the non-specific binding value | specific binding to PKCα-mVenus (mouse PKCα-mVenus; 90 min): no specific binding | specific binding to PKCγ-mVenus (mouse PKCγ-mVenus; 90 min): no specific binding

CCN(CCCCCCCCCCCCNC(=O)c1cc2cc(F)c(O)c(F)c2oc1=O)C(=O)O[C@@]12[C@H](O)[C@@H](C)[C@@]3(O)[C@@H](C=C(CO)C[C@]4(O)C(=O)C(C)=C[C@@H]34)[C@@H]1C2(C)C [probe 47, (1aR,1bS,4aR,7aS,7bS,8R,9R,9aS)-4a,7b,9-trihydroxy-3-(hydroxymethyl)-1,1,6,8-tetramethyl-5-oxo-1,1a,1b,4,4a,5,7a,7b,8,9-decahydro-9aH-cyclopropa[3,4]benzo[1,2-e]azulen-9a-yl (12-(6,8-difluoro-7-hydroxy-2-oxo-2H-chromene-3-carboxamido)dodecyl)(ethyl)carbamate]
Kd (mouse PKCβI-mVenus): 900 nM | Kd (mouse PKCα-mVenus): 1600 nM | Kd (mouse PKCγ-mVenus): 2000 nM | Kd (mouse PKCδ-mVenus): 7800 nM | Kd (mouse PKCε-mVenus): 7900 nM | Kd (mouse PKCη-mVenus): 8200 nM | Kd (mouse PKCθ-mVenus): 13200 nM
